Results from US20240025845A1, “METASTASIS-INHIBITING COMPOSITION OF NOVEL METHYLSULFONAMIDE DERIVATIVE COMPOUND” (KOREA RESEARCH INSTITUTE OF BIOSCIENCE AND BIOTECHNOLOGY, priority 2020, published 2024).

Key:
CSE1L = target: T1, CSE1L (Homo sapiens, UniProt P55060); test: thermal shift assay (TSA) in cells, remaining CSE1L by Western blot; format: binding; settings: cells treated 10 vM, 24 hours; 42-60° C. for 5 minutes; vs DMSO
T1 construct: endogenous in cells
T1 sequence (P55060 1-971): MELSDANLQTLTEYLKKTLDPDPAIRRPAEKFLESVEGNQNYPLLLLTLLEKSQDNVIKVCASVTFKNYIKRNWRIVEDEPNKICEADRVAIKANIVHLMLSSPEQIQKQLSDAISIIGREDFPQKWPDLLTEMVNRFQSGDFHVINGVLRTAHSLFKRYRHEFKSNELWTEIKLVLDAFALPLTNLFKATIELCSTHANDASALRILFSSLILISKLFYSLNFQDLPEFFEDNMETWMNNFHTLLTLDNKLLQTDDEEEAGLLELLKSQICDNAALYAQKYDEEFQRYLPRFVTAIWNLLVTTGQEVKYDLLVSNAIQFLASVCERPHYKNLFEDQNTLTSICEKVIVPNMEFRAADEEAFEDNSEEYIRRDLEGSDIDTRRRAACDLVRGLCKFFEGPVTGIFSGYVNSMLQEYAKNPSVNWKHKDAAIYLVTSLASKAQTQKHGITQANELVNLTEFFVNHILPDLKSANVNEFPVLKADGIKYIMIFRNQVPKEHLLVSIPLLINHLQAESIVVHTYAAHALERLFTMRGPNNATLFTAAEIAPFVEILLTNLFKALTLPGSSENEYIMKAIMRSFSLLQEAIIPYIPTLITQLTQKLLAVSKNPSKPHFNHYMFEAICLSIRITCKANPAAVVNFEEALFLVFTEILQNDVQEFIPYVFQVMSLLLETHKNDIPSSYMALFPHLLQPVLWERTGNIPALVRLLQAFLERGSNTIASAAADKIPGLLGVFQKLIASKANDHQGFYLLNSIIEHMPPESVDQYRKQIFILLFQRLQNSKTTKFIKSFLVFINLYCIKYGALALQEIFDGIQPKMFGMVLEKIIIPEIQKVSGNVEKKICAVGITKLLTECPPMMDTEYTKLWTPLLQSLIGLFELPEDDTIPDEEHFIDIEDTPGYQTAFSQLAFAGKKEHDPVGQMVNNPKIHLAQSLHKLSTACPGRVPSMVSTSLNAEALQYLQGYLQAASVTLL
Description: A CSE1L protein was known as nuclear exportin 2, a type of nuclear exportin that played a role in moving importin-α from the intra-nucleus to the cytoplasm as a cargo protein of nuclear transport (Solsbacher, J.; Maurer, P.; Bischoff, F. R.; Schlenstedt, G. Mol. Cell. Biol. 1998, 18, 6805.). In general, importin-α and Ran-GTP, which were cargo proteins, bound to exportin CSE1L in the nucleus and transported to the cytoplasm through nuclear pores, and the obtained CSE1L-bound Ran-GTP protein was rapidly hydrolyzed to Ran GDP to have the form of a cargo free state (a state in which importin-ax was not bound). Through this series of processes, the protein played a role of substance transport. As another function, the CSE1L protein was particularly abundant in cancer cells or tissues, and reported to have roles and functions in metastasis, such as carcinogenesis, cancer cell movement, and cancer cell invasion, but since the exact mechanism has not been reported yet, it was intended to predict the interaction with a novel metastasis-targeting protein (CSE1L) and develop effective substances using molecular modeling tools. Based on a binding site of the previously identified fusarisetin compound and the target protein (CSE1L), a virtual search was conducted using about 1.5 million compound libraries (commercial focused libraries) to predict combinable compounds. […]

cancer cells = test: real-time cell movement with Holomonitor device; format: cell-based
[1] = mouse liver metabolic stability assay; format: in vitro ADME
MDA-MB-231 cells = test: Wound healing assay (cancer cell movement); format: cell-based, human
Procedure: (§1) In order to evaluate the cytotoxicity of the compound 1-1 according to the present invention, MTT assay was performed on a human breast cancer cell line (MDA-MB-231). Cells used in the experiment were all purchased from the American Type Culture Collection (ATCC). First, 1×10^5 MDA-MB-231 cells were divided into 200 vL of 5×10^3 cells in a 96-well plate using a DMEM medium added with 10% fetal bovine serum (FBS), […] and 50 U/ml penicillin while maintained at 37° C. under 5% CO2 air, and then incubated in a CO2 incubator for 24 hours. The purchased compound 1-1 of the present invention was treated at a concentration of 50 vM and incubated for 24 hours under the same culture conditions. After the incubation was completed, the culture medium was removed and 50 vL of 10 mg/mL MTT solution [3-(4,5-dimethylthiazol-2-yl)-2,5-diphenyltetrazolium bromide] (Sigma, St. Louis, MO, USA) was added per well and reacted at 37° C. for 4 hours. Subsequently, a supernatant was removed carefully so as to […] formazan crystals at the bottom, and 50 μL of dimethyl sulfoxide (DMSO) was added per well, and then shaken for 10 minutes, and an optical density (OD) at 590 nm was measured. […] The number of moved cells was quantified using an optical microscope (×100). […]

[2] = test system: mouse breast cancer cell line 4T1; test: orthotopic xenograft spontaneous metastasis mouse model (metastatic breast cancer); format: in vivo
Description: In order to test a metastasis-inhibiting effect of the compound 1-1, which was a CSE1L inhibiting compound, in a mouse model, the metastasis-inhibiting effect was confirmed using an orthotopic xenograft spontaneous metastasis model. First, a method of examining metastasis of cancer formed by subcutaneous transplantation of mouse breast cancer cell line 4T1 (murine breast cancer cell) to other tissues was used. Female 6-week-old nude mice (BALB/c) were used. To make solid cancer, the mouse breast cancer cell line 4T1 (1×10^5 murine breast cancer cells) was transplanted into the 4th Mammary Fat Pad of the mouse, and from 5 days later, the compound 1-1 was treated at 10 mg/kg and 50 mg/kg every day for 3 weeks, respectively. […] In addition, after 25 days, the mice were autopsied to confirm the number of cancer cells metastasizing to the lung. […] Through the evaluation of anti-metastasis efficacy using the metastasis breast cancer model, the metastasis-inhibiting efficacy of the compound 1-1 was confirmed through selective regulation of the CSE1L function by binding to the target protein CSE1L. Accordingly, a novel derivative was synthesized in order to secure a substance showing better activity than these substances.

[3] = test system: human breast cancer cell line (MDA-MB-231); test: MTT cytotoxicity assay; format: cell-based
Procedure: as §1

MDA-MB-231 cell lines = test: transwell Matrigel invasion chamber assay; format: cell-based, human; settings: MDA-MB-231, 10 and 20 vM, 20 hours, compared to control group
Procedure: as §1

angiogenesis = test: chorioallantoic membrane (CAM) angiogenesis assay; format: in vivo; settings: fertilized egg, 4 μg
Procedure: In order to confirm whether angiogenesis was inhibited using the compound 1-46, which had high stability in vivo, among methylsulfonamide-based derivative compounds discovered as CSE1L inhibitors, a chorioallantoin membrane (CAM) was performed. First, the surface of the fertilized viable egg was wiped with 70% ethanol, incubated at 37° C. for 4 days, and 3 ml of albumin of the viable egg was extracted and then treated with the compound 1-46 at a concentration of 4 μg, and then it was observed whether angiogenesis was inhibited.

SMILES | amount of remaining CSE1L after heating (thermal stabilization) (CSE1L) | invasion and movement of cancer cells in real time (cancer cells) | metabolic stability [1] | cell movement of cancer cell line (wound healing) (MDA-MB-231 cells; MDA-MB-231, 10 and 20 μM, 24 hours, compared to control group) | change in body weight (toxicity) ([2]; 10 mg/kg and 50 mg/kg every day for 3 weeks, compared to negative control group) | formation of cancer tissue in other organs (metastasis, bioluminescence) ([2]; 10 mg/kg and 50 mg/kg every day, vs control group) | volume and capacity of the tumors ([2]; 10 mg/kg and 50 mg/kg, drug treatment period (16 to 24 days)) | number of cancer cells metastasizing to the lung ([2]; autopsy after 25 days, compared to control group) | cytotoxicity (MTT) ([3]; MDA-MB-231, 50 vM, 24 hours) | number of invaded cancer cells (MDA-MB-231 cell lines) | angiogenesis inhibitory activity (angiogenesis) | cell movement of cancer cell line (wound healing) (MDA-MB-231 cells; MDA-MB-231, compared to control group, concentration not given) | cytotoxicity (MTT) ([3]; MDA-MB-231, 10 to 100 vM)
CS(=O)(=O)N(CC(N)=O)c1ccc(C(Cl)(Cl)Cl)cc1 [Compound 1-1, 2-[N-methylsulfonyl-4-(trichloromethyl)anilino]acetamide] | not reduced, but continuously maintained through structural stabilization | inhibited the invasion and movement of cancer cells | 89.8% | significantly reduced | no change in body weight | showed a tendency to inhibit the formation of cancer tissue in other organs | not suppressed | significantly reduced | no cytotoxicity | significantly reduced | – | – | –
NC(=O)CN(c1ccc(C(F)(F)F)cc1)S(=O)(=O)CCC(F)(F)F [Compound 1-46] | – | – | 91.4% | – | – | – | – | – | – | significantly reduced | excellent angiogenesis inhibitory activity | significantly reduced | no cytotoxicity
NC(=O)CN(c1ccc(C(F)(F)F)cc1)S(=O)(=O)CC(F)(F)F [Compound 1-45] | – | – | 82.2% | – | – | – | – | – | – | – | – | – | –
